{"source": "paper PMC5390467", "about": "“Novel lead structures with both Plasmodium falciparum gametocytocidal and asexual blood stage activity identified from high throughput compound screening” (Malaria Journal, 2017)", "key": {"[1]": {"biological_target": "T1, PIK3CD (Homo sapiens, UniProt O00329)", "T1 construct": "purchased DiscoverX (KINOMEscan)", "T1 sequence (O00329 1-1044)": "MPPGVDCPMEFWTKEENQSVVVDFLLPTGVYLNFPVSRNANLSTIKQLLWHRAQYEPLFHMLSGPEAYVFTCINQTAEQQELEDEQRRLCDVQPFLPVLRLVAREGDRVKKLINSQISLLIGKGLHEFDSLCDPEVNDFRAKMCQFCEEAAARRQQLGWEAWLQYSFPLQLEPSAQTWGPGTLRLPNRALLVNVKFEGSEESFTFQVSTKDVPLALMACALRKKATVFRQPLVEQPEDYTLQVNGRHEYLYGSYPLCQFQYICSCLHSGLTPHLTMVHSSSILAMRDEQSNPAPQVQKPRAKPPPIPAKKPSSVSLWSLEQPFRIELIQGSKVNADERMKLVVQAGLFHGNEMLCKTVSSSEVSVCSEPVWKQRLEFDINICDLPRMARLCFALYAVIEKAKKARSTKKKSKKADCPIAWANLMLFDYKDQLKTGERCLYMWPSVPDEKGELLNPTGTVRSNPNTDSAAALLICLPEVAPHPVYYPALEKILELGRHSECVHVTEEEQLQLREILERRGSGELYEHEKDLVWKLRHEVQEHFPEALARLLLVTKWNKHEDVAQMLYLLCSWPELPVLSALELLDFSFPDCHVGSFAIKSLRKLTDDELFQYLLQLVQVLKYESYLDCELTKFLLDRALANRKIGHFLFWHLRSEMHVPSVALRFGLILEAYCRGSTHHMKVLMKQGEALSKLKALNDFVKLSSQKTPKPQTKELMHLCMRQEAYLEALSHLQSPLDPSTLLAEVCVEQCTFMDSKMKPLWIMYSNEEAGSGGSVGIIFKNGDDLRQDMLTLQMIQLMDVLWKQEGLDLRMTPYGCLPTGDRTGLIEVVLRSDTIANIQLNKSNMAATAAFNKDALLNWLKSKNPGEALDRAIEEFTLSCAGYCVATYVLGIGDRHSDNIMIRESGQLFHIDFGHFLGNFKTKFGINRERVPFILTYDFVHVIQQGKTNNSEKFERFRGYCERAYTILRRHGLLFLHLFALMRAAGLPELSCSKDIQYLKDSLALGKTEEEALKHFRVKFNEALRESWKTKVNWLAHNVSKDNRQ", "test": "Kinome scan profile", "assay_type": "binding", "conditions": "10 μM"}, "[2]": {"biological_target": "T2, IKK-epsilon (Homo sapiens, UniProt Q14164)", "T2 construct": "purchased DiscoverX (KINOMEscan)", "T2 sequence (Q14164 1-716)": "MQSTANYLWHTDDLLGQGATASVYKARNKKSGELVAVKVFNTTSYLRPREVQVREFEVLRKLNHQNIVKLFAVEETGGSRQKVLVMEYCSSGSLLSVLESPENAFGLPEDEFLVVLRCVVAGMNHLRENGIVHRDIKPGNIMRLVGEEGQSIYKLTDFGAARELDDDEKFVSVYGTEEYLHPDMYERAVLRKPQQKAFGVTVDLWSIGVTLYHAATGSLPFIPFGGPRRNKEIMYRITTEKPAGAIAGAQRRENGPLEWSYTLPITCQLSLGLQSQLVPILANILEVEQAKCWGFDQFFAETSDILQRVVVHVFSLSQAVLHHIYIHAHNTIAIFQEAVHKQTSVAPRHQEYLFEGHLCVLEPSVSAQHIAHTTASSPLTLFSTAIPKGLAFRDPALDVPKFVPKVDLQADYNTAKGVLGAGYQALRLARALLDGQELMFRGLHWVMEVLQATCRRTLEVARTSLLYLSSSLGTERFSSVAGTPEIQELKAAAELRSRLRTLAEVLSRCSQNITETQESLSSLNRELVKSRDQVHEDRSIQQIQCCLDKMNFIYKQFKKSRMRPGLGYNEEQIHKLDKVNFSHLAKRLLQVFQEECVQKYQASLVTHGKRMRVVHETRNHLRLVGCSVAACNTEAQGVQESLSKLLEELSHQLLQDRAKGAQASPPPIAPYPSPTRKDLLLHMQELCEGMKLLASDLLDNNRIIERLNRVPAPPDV", "test": "Kinome scan profile", "assay_type": "binding", "conditions": "10 μM"}}}
{"smiles": "CCN1CCN(Cc2c(O)ccc3c(=O)c(Oc4ccccc4C(C)C)c(C(F)(F)F)oc23)CC1", "note": "[NCGC00100599]", "values": [{"measurement": "% Control, PIK3CD", "setting": "[1]", "result": 10, "unit": "% Control"}, {"measurement": "% Control, IKK-epsilon", "setting": "[2]", "result": 31, "unit": "% Control"}]}
